Patent US20260166021A1, “POLYMORPHIC FORMS OF A SOLUBLE EPOXIDE HYDROLASE INHIBITOR AND FORMULATIONS THEREOF” (EicOsis, LLC, priority 2022, published 2026)
In brackets after ≈: the same amount, converted by molar mass. Several values for one entry are separate records, joined by “and”; a condition that tells them apart may be missing. Identical values can stand only once. Marks after values point to notes of the source that are not given here.

Assays:
Format in all cases: physicochemical
[1] = Competitive slurry experiments (solvent-mediated polymorph transformation, XRD); settings: 1 and 7 days
Experimental: Polymorph stability and interconversions were analyzed with competitive slurry experiments. The competitive slurry (solvent-mediated transformation) experiments were performed on Forms A, B, D, E, F, G, and I generated through scaled-up crystallization (summarized in TABLE 11). […] The suspensions were aliquoted at one day and seven days and filtered to isolate the solids. Remaining solid was analyzed by XRD without drying.
In FIG. 66, the second spectrum from the top corresponds to Form E. These XRD data confirmed that Patterns C, K, and D were afforded in these solvents.
In order to further confirm the rank of stability order of the selected forms and extend the temperature range of stability relationship up to 70° C. covering potential API process conditions, binary form slurries were conducted with starting mixtures of (1) Forms A and D, and (2) Forms D and E. The resultant polymorphs were characterized with XRD after 1 and 7 days, the results of which analyses are shown in FIGURE S 67-68 and summarized in TABLE 13. Pattern D stood out from both binary mixture slurries of A & D and of D & E after seven-day stirring at the elevated temperature.
Additional single form slurry experiments were conducted on Forms A, D, and E in either water or heptane at room temperature. […] In agreement with prior competitive slurry experiments, Form D was stable at room temperature in n-heptane. Pattern E was obtained from slurries starting with Forms A and E in n-heptane. As expected, Form C was formed from the Pattern E slurry in water.

[2] = Hygroscopic analyses: stability at 75% relative humidity and 40° C. (XRD); settings: open vial, after 4 and 14 days
Experimental: To further evaluate physical stability, Form D was tested for stability in humid conditions. […] FIG. 84 summarizes XRD analyses used to monitor the polymorph over the 14-day experiment. In this figure, the top panel provides a representative XRD spectrum of Form D, the second from the top panel is an XRD spectrum of the starting material, the third from the top panel is an XRD spectrum of the starting material after 4 days of humidity exposure, and the bottom panel is an XRD spectrum of the starting material after 14 days of humidity exposure.

[3] = Equilibrium-solubility screening in solvents and excipients
Experimental: For these analyses, Form D or Form C was mixed with 0.5 or 1.0 mL of solvents and equilibrated for approximately 24 hours. The mixture was filtered through 0.45 μm centrifuge filters.
As expected, the compound was not easily ionized at physiologically relevant pH. […] In addition, these excipients included surfactants, co-solvents, and lipids which are amenable for use in self-emulsifying drug delivery systems (SEDDS). The XRD pattern of the starting material was maintained for each sample after equilibrium.

[4] = Supersaturation monitoring in PEG 300; settings: for Step → Observation: PEG 300 (0.5 mL)
[5] = Thermal gravimetric analysis (TGA); settings: below 150° C.
Experimental: Thermal gravimetric analyses were performed on each sample “as is.” Unless otherwise noted, samples were weighed in an alumina crucible and analyzed from 30-350° C. at 10° C./min.
Form C weight loss at 39° C.-50° C. likely reflected methanol loss.

[6] = Capmul MCM, (medium name cut off)
[7] = Castor Oil, (medium name cut off)

Structure (SMILES): CC[C@H](C)C(=O)N1CCC(NC(=O)Nc2ccc(OC(F)(F)F)c(F)c2)CC1 [Form D, (S)-1-(3-fluoro-4-(trifluoromethoxy)phenyl)-3-(1-(2-methylbutanoyl)piperidin-4-yl)urea]
- polymorph stability in binary form slurries ([1]; mixtures A & D and D & E, n-heptane, up to 70° C.): most thermodynamically stable
- single form slurry in n-heptane: resultant polymorph ([1]; n-heptane, room temperature): stable
- polymorph stability in competitive slurry ([1]; room temperature, water, MTBE or n-heptane, listed as Pattern D): most stable form
- polymorph stability in humid conditions [2]: unchanged
- Equilibrium Solubility ([3]; Campul MCM): 56.2 mg/mL
- XRD Pattern At Equilibrium ([3]; Campul MCM): Form D
- XRD Pattern At Equilibrium ([3]; Canola Oil): Form D
- solubility thermodynamic at 24 h ([3]; Canola Oil, oil or lipid, thermodynamic from solid): < 100 µg/mL
- Equilibrium Solubility [3, 6]: 24.5 mg/mL
- XRD Pattern At Equilibrium [3, 6]: Form D
- Equilibrium Solubility ([3]; Captex 355): 2.0 mg/mL
- XRD Pattern At Equilibrium ([3]; Captex 355): Form D
- Equilibrium Solubility ([3]; Castor Oil): 5.5 mg/mL
- XRD Pattern At Equilibrium ([3]; Castor Oil): Form D
- Equilibrium Solubility [3, 7]: 42.6** mg/mL
- XRD Pattern At Equilibrium [3, 7]: Form D
- XRD Pattern At Equilibrium ([3]; Corn Oil): Form D
- solubility thermodynamic at 24 h ([3]; Corn Oil, oil or lipid, thermodynamic from solid): < 100 µg/mL
- XRD Pattern At Equilibrium ([3]; DI water): Form C (minor
- XRD Pattern At Equilibrium, minor form ([3]; DI water): Form D)
- solubility thermodynamic at 24 h ([3]; DI water, water, thermodynamic from solid, approximately 24 hours): < 100 µg/mL
- Equilibrium Solubility ([3]; FaSSIF): 0.2 mg/mL
- XRD Pattern At Equilibrium ([3]; FaSSIF): Form D
- solubility thermodynamic at 24 h ([3]; FaSSIF, thermodynamic from solid): < 100 µg/mL
- Equilibrium Solubility ([3]; Gelucire 44/14): 37.7** mg/mL
- XRD Pattern At Equilibrium ([3]; Gelucire 44/14): Form D
- XRD Pattern At Equilibrium ([3]; Glycerol): Form D
- solubility thermodynamic at 24 h ([3]; Glycerol, organic solvent or mixture, thermodynamic from solid): < 100 µg/mL
- Equilibrium Solubility ([3]; Intralipid): 0.1 mg/mL
- XRD Pattern At Equilibrium ([3]; Intralipid): Form D
- Equilibrium Solubility ([3]; Kolliphor): 1.4 mg/mL
- XRD Pattern At Equilibrium ([3]; Kolliphor): Form D
- Equilibrium Solubility ([3]; Kolliphor EL): 20.4 mg/mL
- XRD Pattern At Equilibrium ([3]; Kolliphor EL): Form D
- Equilibrium Solubility ([3]; Kolliphor HS-): 37.3** mg/mL
- XRD Pattern At Equilibrium ([3]; Kolliphor HS-): Form D
- Equilibrium Solubility ([3]; Labrafil): 9.6 mg/mL
- XRD Pattern At Equilibrium ([3]; Labrafil): Form D
- Equilibrium Solubility ([3]; Labrasol): 21.8 mg/mL
- XRD Pattern At Equilibrium ([3]; Labrasol): Form D
- Equilibrium Solubility ([3]; Miglyol 810): 2.0 mg/mL
- XRD Pattern At Equilibrium ([3]; Miglyol 810): Form D
- Equilibrium Solubility ([3]; Miglyol 812): 1.9 mg/mL
- XRD Pattern At Equilibrium ([3]; Miglyol 812): Form D
- solubility thermodynamic at 24 h ([3]; NaOH solution, pH 10.0, pH 10, aqueous buffer, thermodynamic from solid, pH 10.0 NaOH): < 100 µg/mL
- Equilibrium Solubility ([3]; Oleic Acid): 9.0 mg/mL
- XRD Pattern At Equilibrium ([3]; Oleic Acid): Form D
- Equilibrium Solubility ([3]; PEG 300, 50%): 0.4 mg/mL and 0.5 mg/mL
- XRD Pattern At Equilibrium ([3]; PEG 300, 50%): Form D
- XRD Pattern At Equilibrium ([3]; PEG 300, 100%): Form D
- XRD Pattern At Equilibrium ([3]; PEG 400, 50%): Form D
- solubility thermodynamic at 24 h ([3]; PEG 400, 50%, aqueous with cosolvent or surfactant or cyclodextrin, thermodynamic from solid): 900 µg/mL (≈ 2220 µM)
- Equilibrium Solubility ([3]; PEG 400, 100%): 17.0 mg/mL
- XRD Pattern At Equilibrium ([3]; PEG 400, 100%): Form D
- solubility thermodynamic at 24 h ([3]; PEG 400, 100%, organic solvent or mixture, thermodynamic from solid): 20100 µg/mL (≈ 49600 µM)
- Equilibrium Solubility ([3]; Peceol): 12.9 mg/mL
- XRD Pattern At Equilibrium ([3]; Peceol): Form D
- Equilibrium Solubility ([3]; Plurol Oleique): 8.7 mg/mL
- XRD Pattern At Equilibrium ([3]; Plurol Oleique): Form D
- Equilibrium Solubility ([3]; Propylene): 24.1 mg/mL
- XRD Pattern At Equilibrium ([3]; Propylene): Form D
- XRD Pattern At Equilibrium ([3]; SLS, 1x CMC): Form C
- solubility thermodynamic at 24 h ([3]; SLS, 1x CMC, aqueous with cosolvent or surfactant or cyclodextrin, thermodynamic from solid): < 100 µg/mL
- Equilibrium Solubility ([3]; SLS, 5x CMC): 1.2 mg/mL
- XRD Pattern At Equilibrium ([3]; SLS, 5x CMC): Form C
- Equilibrium Solubility ([3]; SLS, 10x CMC): 1.5 mg/mL
- XRD Pattern At Equilibrium ([3]; SLS, 10x CMC): Form C
- Equilibrium Solubility ([3]; SLS, 100x CMC): 2.5 mg/mL
- XRD Pattern At Equilibrium ([3]; SLS, 100x CMC): Form C
- XRD Pattern At Equilibrium ([3]; Soybean Oil): Form D
- solubility thermodynamic at 24 h ([3]; Soybean Oil, oil or lipid, thermodynamic from solid): < 100 µg/mL
- Equilibrium Solubility ([3]; Sulfobutylether): 7.9 mg/mL
- XRD Pattern At Equilibrium ([3]; Sulfobutylether): Form D
- Equilibrium Solubility ([3]; Transcutol HP): 38.1 mg/mL
- XRD Pattern At Equilibrium ([3]; Transcutol HP): Form D
- Equilibrium Solubility ([3]; Triacetin): 6.4 mg/mL
- XRD Pattern At Equilibrium ([3]; Triacetin): Form D
- XRD Pattern At Equilibrium ([3]; Tween 80, 1x): Form C
- solubility thermodynamic at 24 h ([3]; Tween 80, 1x, aqueous with cosolvent or surfactant or cyclodextrin, thermodynamic from solid): < 100 µg/mL
- XRD Pattern At Equilibrium ([3]; Tween 80, 5x): Form C
- solubility thermodynamic at 24 h ([3]; Tween 80, 5x, aqueous with cosolvent or surfactant or cyclodextrin, thermodynamic from solid): < 100 µg/mL
- XRD Pattern At Equilibrium ([3]; Tween 80, 10x): Form C
- solubility thermodynamic at 24 h ([3]; Tween 80, 10x, aqueous with cosolvent or surfactant or cyclodextrin, thermodynamic from solid): < 100 µg/mL
- XRD Pattern At Equilibrium ([3]; Tween 80, 100x): Form C
- solubility thermodynamic at 24 h ([3]; Tween 80, 100x, aqueous with cosolvent or surfactant or cyclodextrin, thermodynamic from solid): < 100 µg/mL
- Equilibrium Solubility ([3]; Vitamin E): 40.6** mg/mL
- XRD Pattern At Equilibrium ([3]; Vitamin E): Form D
- XRD Pattern At Equilibrium ([3]; pH 1.0 HCl): Forms C & D
- solubility thermodynamic at 24 h ([3]; pH 1.0 HCl, pH 1, simulated gastric fluid, thermodynamic from solid): < 100 µg/mL
- XRD Pattern At Equilibrium ([3]; pH 7.4): Form D
- solubility thermodynamic at 24 h ([3]; pH 7.4 medium (buffer not named), pH 7.4, aqueous buffer, thermodynamic from solid, pH 7.4): < 100 µg/mL
- XRD Pattern At Equilibrium ([3]; pH 10.0 NaOH): Forms C & D
- Step → Observation ([4]; 100 mg/mL, 1. RT stirring for 1 hr, listed as Pattern D): 1. RT stirring for 1 hr → suspension
- Step → Observation ([4]; 100 mg/mL, 2. 40 C. heating for 0.5 hr, listed as Pattern D): 2. 40 C. heating for 0.5 hr → clear solution
- Step → Observation ([4]; 100 mg/mL, 3. RT storage for ~8 days, listed as Pattern D): 3. RT storage for ~8 days → clear solution
- Step → Observation ([4]; 100 mg/mL, 4. RT storage for ~9 days, listed as Pattern D): 4. RT storage for ~9 days → precipitation
- Step → Observation ([4]; 200 mg/mL, 1. RT stirring for 1 hr): 1. RT stirring for 1 hr →suspension
- Step → Observation ([4]; 200 mg/mL, 2. 40 C. heating for 48 hr, listed as Pattern D): 2. 40 C. heating for 48 hr →suspension
- Step → Observation ([4]; 200 mg/mL, 3. 55 C. heating for <16 hr): 3. 55 C. heating for <16 hr →clear solution
- Step → Observation ([4]; 200 mg/mL, 4. RT storage for <3.5 days): 4. RT storage for <3.5 days →precipitation
- Step → Observation ([4]; 200 mg/mL, 5. 55 C. reheating for overnight): 5. 55 C. reheating for overnight →clear solution
- Step → Observation ([4]; 200 mg/mL, 6. RT storage for overnight): 6. RT storage for overnight →precipitation
- TGA: wt change [5]: No wt change below

Structure (SMILES): CC[C@H](C)C(=O)N1CCC(NC(=O)Nc2ccc(OC(F)(F)F)c(F)c2)CC1 [Formula (I), (S)-1-(3-fluoro-4-(trifluoromethoxy)phenyl)-3-(1-(2-methylbutanoyl)piperidin-4-yl)urea]
- solubility thermodynamic ([3]; organic solvent or mixture, thermodynamic from solid, PEG300, PEG400, propylene glycol, vitamin E TPGS, Gelucire 44/14, castor oil hydrogenated, Capmul MCM NF, Capmul MCM EP, Kolliphor HS-15, Kolliphor EL, Labrasol, Transcutol HP, approx. 24 hours): > 20000 µg/mL
- time without visual precipitation in PEG300 ([4]; 100 mg/mL in PEG300, room temperature): 9 days
- precipitation from PEG300 ([4]; 200 mg/mL in PEG300): readily precipitated overnight
